# Key:
# ALK = ALK (Homo sapiens, UniProt Q9UM73); assay: Kinase panel: ALK; assay type: biochemical; settings: 10 μM EP009
# Protocol: (§1) Achieving JAK3 selectivity remains a significant challenge in the development of new small molecules for the treatment of cancer and immune-derived diseases. As such, the inventors employed cell-based screening assays of small-molecule libraries based upon the chemical scaffold of the established JAK3 inhibitor NC1153 (Stepkowski et al., J Immunol. (2005), 175(7):4236-4246) EP009 (FIG. 2A) was selected as a lead compound due to improved intrinsic stability (>95% purity in various solvents at 37° C. for 24 hours; FIG. 3) and high-degree of JAK3 selectivity. To test JAK3 versus JAK2 specificity of EP009, the IL-2/JAK3-dependent Kit225, and IL-3/JAK2-dependent BaF/3 cell lines were used. Kit225 and BaF/3 cells growing in the presence of IL-2 or IL-3, respectively, were treated with ascending concentrations of EP009 for 12 hours and cellular JAK3 and JAK2 tyrosine phosphorylation levels detected by Western blot analysis (FIGS. 2B and 2C). Following densitometric analysis, EP009 was determined to dose-dependently reduce IL-2-mediated JAK3 tyrosine phosphorylation with a cellular 50% inhibitory concentration (IC50) between 10 and 20 μM (FIG. 2B). […] To globally evaluate specificity, the inhibitory activity of EP009 was measured against a panel of protein kinases distributed throughout the kinome using the scanEDGE profiling service (KINOMEscan). […]
# TGFBR1 = TGFBR1 (Homo sapiens, UniProt P36897); assay: Kinase panel: TGFBR1; assay type: biochemical; settings: 10 μM EP009
# Protocol: as §1
# CDK7 = CDK7 (Homo sapiens, UniProt P50613); assay: Kinase panel: CDK7; assay type: biochemical; settings: 10 μM EP009
# Protocol: as §1
# MEK1 = MEK1 (Homo sapiens, UniProt Q02750); assay: Kinase panel: MEK1; assay type: biochemical; settings: 10 μM EP009
# Protocol: as §1
# PIM3 = PIM3 (Homo sapiens, UniProt Q86V86); assay: Kinase panel: PIM3; assay type: biochemical; settings: 10 μM EP009
# Protocol: as §1
# [1] = biological target: ABL1(E255K)-phosphorylated (Homo sapiens, UniProt P00519, E255K); assay: Kinase panel: ABL1(E255K)-phosphorylated; assay type: biochemical; settings: 10 μM EP009
# Protocol: as §1
# JNK2 = JNK2 (Homo sapiens, UniProt P45984); assay: Kinase panel: JNK2; assay type: biochemical; settings: 10 μM EP009
# Protocol: as §1
# [2] = system: IL-2/JAK3-dependent Kit225 cells; assay: Kit225 cell viability (MTS); assay type: cell-based, human
# Protocol: FIGS. 2A-2F. […] (B) Kit225 or (C) BaF/3 cells cultured in the presence of IL-2 or IL-3, respectively, were treated with vehicle (PBS; lane a) or increasing amounts of EP009 (0-50 μM; lanes b-h) for 12 hours. Cells were then lysed, clarified, and immunoprecipitated (IP) with anti-JAK3 (α-JAK3) or anti-JAK2 (α-JAK2), and subjected to Western blot (WB) analysis with anti-phosphotyrosine (α-pY). Blots were stripped and reprobed with corresponding antibody to verify equivalent protein loading. (D) Immunopurified JAK3 was subjected to in vitro autokinase analysis after treatment with vehicle (DMSO; lanes a and b) or ascending concentrations of EP009 (0-10 μM; lanes c-f) for 1 hour at room temperature. […] (E) Kit225 or BaF/3 cells were cultured with increasing amounts of EP009 (0-10 μM) for 72 hours and cell viability measured with the MTS tetrazolium salt assay. Values represent mean absorbance (OD490-OD650 nm) normalized to vehicle (PBS) treated control cells, while error bars represent the standard deviation (n=3). (F) HEK293, HEPG2, or naïve primary human PBMCs were cultured with increasing amounts of EP009 (0-10 μM) for 72 hours and cell viability measured with the MTS tetrazolium salt assay. Values represent mean absorbance (OD490-OD650 nm) normalized to vehicle (PBS) treated control cells, while error bars represent the standard deviation (n=3). […]
# Sequence of JNK2 (P45984 whole entry): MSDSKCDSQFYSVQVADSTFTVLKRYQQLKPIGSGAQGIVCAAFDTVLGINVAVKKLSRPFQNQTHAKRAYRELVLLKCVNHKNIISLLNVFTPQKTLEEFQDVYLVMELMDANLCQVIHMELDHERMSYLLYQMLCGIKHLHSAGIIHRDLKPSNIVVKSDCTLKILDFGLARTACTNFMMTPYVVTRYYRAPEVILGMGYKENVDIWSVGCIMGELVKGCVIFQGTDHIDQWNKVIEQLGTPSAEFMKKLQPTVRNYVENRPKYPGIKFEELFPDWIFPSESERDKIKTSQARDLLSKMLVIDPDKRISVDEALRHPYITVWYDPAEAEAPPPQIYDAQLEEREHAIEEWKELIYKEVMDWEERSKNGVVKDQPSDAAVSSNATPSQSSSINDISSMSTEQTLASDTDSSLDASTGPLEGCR
# Sequence of MEK1 (Q02750 whole entry): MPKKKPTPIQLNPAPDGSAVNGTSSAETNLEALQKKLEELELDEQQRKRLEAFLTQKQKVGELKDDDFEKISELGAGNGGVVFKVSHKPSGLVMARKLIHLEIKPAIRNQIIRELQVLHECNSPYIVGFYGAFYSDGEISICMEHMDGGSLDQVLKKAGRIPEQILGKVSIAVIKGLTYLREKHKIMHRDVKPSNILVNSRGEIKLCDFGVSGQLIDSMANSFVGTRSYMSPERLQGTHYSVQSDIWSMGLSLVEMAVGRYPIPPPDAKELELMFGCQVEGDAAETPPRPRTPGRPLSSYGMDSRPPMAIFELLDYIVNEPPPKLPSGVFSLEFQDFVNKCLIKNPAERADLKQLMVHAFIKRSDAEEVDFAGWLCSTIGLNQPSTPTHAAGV
# Sequence of ABL1(E255K)-phosphorylated (P00519 whole entry E255K): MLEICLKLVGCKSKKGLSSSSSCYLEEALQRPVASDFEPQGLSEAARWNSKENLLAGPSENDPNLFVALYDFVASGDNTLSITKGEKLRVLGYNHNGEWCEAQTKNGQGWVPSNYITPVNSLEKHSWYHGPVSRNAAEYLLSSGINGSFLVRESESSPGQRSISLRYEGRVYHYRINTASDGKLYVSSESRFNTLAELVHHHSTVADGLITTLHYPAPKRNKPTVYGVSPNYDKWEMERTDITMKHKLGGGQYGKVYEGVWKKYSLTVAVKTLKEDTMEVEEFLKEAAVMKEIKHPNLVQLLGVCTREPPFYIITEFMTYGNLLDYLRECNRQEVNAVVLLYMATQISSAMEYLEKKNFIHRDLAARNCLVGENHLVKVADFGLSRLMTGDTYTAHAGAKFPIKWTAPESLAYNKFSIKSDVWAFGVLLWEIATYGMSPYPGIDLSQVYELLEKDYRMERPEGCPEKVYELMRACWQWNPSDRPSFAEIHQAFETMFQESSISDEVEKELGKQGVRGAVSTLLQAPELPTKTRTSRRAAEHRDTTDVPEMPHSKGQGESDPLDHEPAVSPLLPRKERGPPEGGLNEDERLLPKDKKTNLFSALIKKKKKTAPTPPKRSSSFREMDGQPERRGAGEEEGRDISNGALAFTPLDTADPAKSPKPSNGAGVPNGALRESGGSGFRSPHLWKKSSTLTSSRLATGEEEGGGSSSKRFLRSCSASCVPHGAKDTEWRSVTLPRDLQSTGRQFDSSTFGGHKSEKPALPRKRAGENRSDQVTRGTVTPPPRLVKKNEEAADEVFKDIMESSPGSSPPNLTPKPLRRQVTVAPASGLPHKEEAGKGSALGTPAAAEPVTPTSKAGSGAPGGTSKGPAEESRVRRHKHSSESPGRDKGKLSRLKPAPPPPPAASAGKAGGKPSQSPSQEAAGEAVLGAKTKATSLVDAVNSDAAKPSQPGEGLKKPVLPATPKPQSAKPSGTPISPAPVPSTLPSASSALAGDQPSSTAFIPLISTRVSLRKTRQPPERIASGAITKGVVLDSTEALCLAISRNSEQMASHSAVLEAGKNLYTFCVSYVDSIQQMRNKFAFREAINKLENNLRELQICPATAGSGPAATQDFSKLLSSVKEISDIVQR
# Sequence of CDK7 (P50613 whole entry): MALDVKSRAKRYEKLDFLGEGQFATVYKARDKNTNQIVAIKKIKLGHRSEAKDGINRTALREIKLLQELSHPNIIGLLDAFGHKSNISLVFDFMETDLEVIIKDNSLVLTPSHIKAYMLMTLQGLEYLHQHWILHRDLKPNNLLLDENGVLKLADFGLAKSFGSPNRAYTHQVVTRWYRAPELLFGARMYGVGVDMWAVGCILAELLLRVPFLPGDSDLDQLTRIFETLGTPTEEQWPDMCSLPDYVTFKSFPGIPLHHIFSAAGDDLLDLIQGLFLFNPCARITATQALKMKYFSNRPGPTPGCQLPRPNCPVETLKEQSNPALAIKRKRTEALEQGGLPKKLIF
# Sequence of ALK (Q9UM73 19-1620): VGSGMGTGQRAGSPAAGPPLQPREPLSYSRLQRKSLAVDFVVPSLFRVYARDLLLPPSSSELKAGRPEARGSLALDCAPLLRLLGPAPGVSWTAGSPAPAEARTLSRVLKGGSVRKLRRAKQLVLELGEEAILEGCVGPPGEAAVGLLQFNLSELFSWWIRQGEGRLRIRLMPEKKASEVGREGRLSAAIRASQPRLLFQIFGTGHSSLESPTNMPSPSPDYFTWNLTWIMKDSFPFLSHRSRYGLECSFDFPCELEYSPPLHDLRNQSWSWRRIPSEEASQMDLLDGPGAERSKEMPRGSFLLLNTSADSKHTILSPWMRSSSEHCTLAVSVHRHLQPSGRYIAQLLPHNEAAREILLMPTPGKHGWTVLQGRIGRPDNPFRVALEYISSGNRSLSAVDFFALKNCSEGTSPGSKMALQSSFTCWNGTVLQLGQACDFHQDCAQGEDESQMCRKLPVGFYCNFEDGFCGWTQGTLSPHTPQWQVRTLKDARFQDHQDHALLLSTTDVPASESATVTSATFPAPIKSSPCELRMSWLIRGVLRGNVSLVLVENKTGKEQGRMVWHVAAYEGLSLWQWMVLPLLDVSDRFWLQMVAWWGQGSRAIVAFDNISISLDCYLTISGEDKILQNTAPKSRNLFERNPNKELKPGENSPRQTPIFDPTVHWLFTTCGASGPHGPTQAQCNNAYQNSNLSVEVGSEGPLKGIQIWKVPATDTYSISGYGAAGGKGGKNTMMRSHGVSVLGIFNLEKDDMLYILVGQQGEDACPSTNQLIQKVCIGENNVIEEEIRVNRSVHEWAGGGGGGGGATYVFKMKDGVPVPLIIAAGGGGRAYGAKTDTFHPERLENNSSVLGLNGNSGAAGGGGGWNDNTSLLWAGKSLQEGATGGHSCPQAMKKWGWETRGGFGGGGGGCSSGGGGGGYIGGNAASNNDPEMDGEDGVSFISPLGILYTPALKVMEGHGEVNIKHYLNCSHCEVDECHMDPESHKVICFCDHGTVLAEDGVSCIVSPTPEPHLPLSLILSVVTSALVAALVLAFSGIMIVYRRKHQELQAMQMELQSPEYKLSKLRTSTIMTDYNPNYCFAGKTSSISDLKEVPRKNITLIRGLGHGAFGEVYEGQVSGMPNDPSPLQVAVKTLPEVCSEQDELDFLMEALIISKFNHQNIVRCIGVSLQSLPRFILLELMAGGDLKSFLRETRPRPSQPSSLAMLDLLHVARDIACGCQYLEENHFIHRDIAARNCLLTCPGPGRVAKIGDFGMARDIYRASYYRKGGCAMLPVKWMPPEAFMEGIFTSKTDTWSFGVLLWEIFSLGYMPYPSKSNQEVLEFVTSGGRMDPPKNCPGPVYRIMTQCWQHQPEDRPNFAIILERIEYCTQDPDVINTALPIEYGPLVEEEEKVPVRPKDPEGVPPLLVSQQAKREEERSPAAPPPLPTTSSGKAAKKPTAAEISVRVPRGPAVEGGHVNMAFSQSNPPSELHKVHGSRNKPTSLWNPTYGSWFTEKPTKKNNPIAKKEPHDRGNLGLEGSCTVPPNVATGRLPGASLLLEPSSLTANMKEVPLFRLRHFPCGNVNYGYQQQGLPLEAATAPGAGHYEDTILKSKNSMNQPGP
# Sequence of TGFBR1 (P36897 34-503): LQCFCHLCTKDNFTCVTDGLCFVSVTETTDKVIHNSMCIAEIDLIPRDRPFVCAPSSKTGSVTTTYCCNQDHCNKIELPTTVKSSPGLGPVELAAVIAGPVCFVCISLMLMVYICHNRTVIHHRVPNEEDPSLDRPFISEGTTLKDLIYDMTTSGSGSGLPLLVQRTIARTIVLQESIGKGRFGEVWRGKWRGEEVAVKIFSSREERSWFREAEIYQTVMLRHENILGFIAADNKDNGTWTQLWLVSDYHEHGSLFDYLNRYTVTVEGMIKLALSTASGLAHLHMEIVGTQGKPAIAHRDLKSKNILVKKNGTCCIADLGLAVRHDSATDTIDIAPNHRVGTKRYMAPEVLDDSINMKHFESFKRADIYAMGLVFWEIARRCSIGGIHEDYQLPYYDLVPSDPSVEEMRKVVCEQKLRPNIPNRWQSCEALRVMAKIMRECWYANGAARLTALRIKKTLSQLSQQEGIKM
smiles,measurement,setting,value
"C=C1CCCCCCCCCC(CO)C1=O (stereo not drawn) [EP009, 2-(Hydroxymethyl)-12-methylenecyclododecanone]",Kinase Activity (% of Control),ALK,100 % of Control
same,Kinase Activity (% of Control),TGFBR1,100 % of Control
same,Kinase Activity (% of Control),CDK7,99 % of Control
same,Kinase Activity (% of Control),MEK1,71 % of Control
same,Kinase Activity (% of Control),PIM3,100 % of Control
same,Kinase Activity (% of Control),[1],64 % of Control
same,Kinase Activity (% of Control),JNK2,100 % of Control
same,concentration resulting in maximal loss of Kit225 cell viability,[2]; 72 hours,7.5 to 10 µM
same,cytotoxicity at 5 µM,"[2]; Homo sapiens, Kit225, 5.0 μM EP009, 72 hours, read-out: reduction in cell viability",55%
